Assays:
[1] = UV-visible absorption and emission spectrum scanning (photophysical property); assay type: physicochemical; details: light excitation, FIG. 8
Protocol: A UV-visible absorption spectrum scanning and an emission spectrum scanning were performed on the target product prepared in Embodiment 3, and the scanning results are shown in FIGS. 7 and 8. […] Therefore, the target product may include a deep tissue penetration depth in photodynamic therapy or in vivo fluorescence imaging.

[2] = Detection of superoxide anion free radicals with dihydroethidium (DHE) probe under irradiation; assay type: physicochemical; details: water solution 10 μM, air atmosphere, 700 nm LED 1.25 mW/cm^2
Protocol: Under an air atmosphere, dihydroethidium (DHE) was added to a water solution (10 μM) of the target product prepared in Embodiment 3 as a probe of superoxide anion free radicals, and an irradiation condition was a 700 nm light-emitting diode lamp of 1.25 mW/cm^2, a fluorescence of ethidium oxide generated by an oxidation of the DHE by the superoxide radicals was detected, and a fluorescence intensity enhanced with the increase of an irradiation time.

[3] = Detection of singlet oxygen with 1,3-diphenylisobenzofuran (DPBF) capture spectrophotometry; assay type: physicochemical; details: DPBF absorbance at 416 nm, 700 nm LED 1.25 mW/cm^2
Description: A phosphorescence emission of singlet oxygen was easily quenched by water molecules, and the singlet oxygen generated by the target product was detected by using chemical capture spectrophotometry. 1,3-diphenylisobenzofuran (DPBF) was one of the most commonly used singlet oxygen capture agents, and 1,3-diphenylisobenzofuran reacted with the singlet oxygen rapidly to generate a colorless substance, and a content of the singlet oxygen may be reflected by detecting a variation of an absorbance of the 1,3-diphenylisobenzofuran (DPBF) at a characteristic absorption peak (416 nm) using the UV-visible absorption spectrum. An irradiation condition was a 700 nm light-emitting diode (LED) lamp of 1.25 mW/cm^2, a characteristic absorption of the 1,3-diphenylisobenzofuran (DPBF) at the characteristic absorption peak of 416 nm was gradually weakened.

[4] = Monitoring of self-degradation / photodegradation of the photosensitizer in solution (UV-vis, emission, HPLC); assay type: physicochemical
Protocol: In the test of Embodiment 7, an irradiation condition was the 700 nm light-emitting diode lamp of 1.25 mW/cm^2 for 0 min-2 min, the characteristic absorption of 1,3-diphenylisobenzofuran (DPBF) at the characteristic absorption peak of 416 nm was gradually weakened.
The target product obtained in Embodiment 3 was placed under a light-emitting diode lamp for irradiation, and an irradiation condition was 700 nm of 10 mW/cm^2, and the UV-visible absorption spectrum and an emission spectrum of the target product were recorded during irradiation.
As a control, the reference compound prepared in Embodiment 4 was placed under a light-emitting diode lamp for irradiation, the irradiation condition was 640 nm, 10 mW/cm^2, and the UV-visible absorption spectrum and the emission spectrum of the reference compound were recorded during irradiation.

[5] = system: HeLa human cervical cancer cells; assay: Detection of cellular phototoxicity (CCK-8 cell viability); assay type: cell-based; details: 700 nm LED 2.5 mW/cm^2 for 10 min
Protocol: The cells used in the experiment were HeLa human cervical cancer cells. Cell culture was performed in a DMEM complete culture medium (purchased from Genye, 500 mL) supplemented with 10% inactivated fetal bovine serum (purchased from Shuohua, 500 mL) with 1% penicillin-streptomycin (purchased from Corning, 100 mL) at a temperature of 37° C. and an atmosphere of 5% carbon dioxide.
Sub-cultured Hela cells were digested by trypsin and dispersed in the culture medium at an appropriate concentration. […]
100 μL of PBS buffer was added to each well, and an irradiation condition was a 700 nm light-emitting diode lamp of 2.5 mW/cm^2 for 10 min. […] During this process, a monosodium salt of 2-(2-methoxy-4-nitrophenyl)-3-(4-nitrophenyl)-5-(2,4-disulfonate phenyl)-2H-tetrazolium (WST-8) in the CCK-8 reagent with an electron coupling reagent may be reduced to a water-soluble yellow formazan product by living cells, which causes an absorbance of the solution at 450 nm to vary, and values of variation may be proportional to a count of living cells. The variation of the absorbance at 450 nm of each well was measured using an enzyme labeling apparatus, and a cell viability at each incubation concentration was calculated according to a formula: […]

[6] = system: HeLa human cervical cancer cells; assay: Medicine phototherapy at an animal level (subcutaneous tumor model); assay type: in vivo, BALB/C nude mice; details: 0.2 mg/kg in situ injection, 2 weeks
Protocol: All animal experiments in the in vivo experiments were performed in strict compliance with the Chinese regulations for animal experiments using BALB/C nude mice, 5 weeks of age of the mouse, male, and a range of 16 g-25 g of body weight. Each mouse was subcutaneously inoculated with 100 uL of HeLa human cervical cancer cells in the right hind limb (5×10^6) to construct the tumor model, and the experiments were performed two weeks later.
Mice were randomly grouped by number, and the experiment was divided into an irradiation control group (including irradiation), a dark control group (including a target product; and a degradation product), and an experimental group (including target product+irradiation; and degradation product+irradiation), with six mice in each group. The dark control and experimental groups were administered by in situ injection, respectively: a dose of 0.2 mg/kg was administered, and 20 μL (0.2 mg/ml) of PBS solution of the target product or degradation product was injected in situ. After 30 min, the irradiation control and experimental groups were irradiated, and an irradiation condition was a 700 nm light-emitting diode lamp of 100 mW/cm^2, and 10 min of irradiation per mouse. The six mice were not given a light-avoidance process after therapy and were put into rearing cages to continue to feed, and every two days, a tumor volume was measured by vernier calipers and the body weight was weighed. The mice were therapized for 2 weeks.

[7] = Photosensitization side effects of a photosensitizer at an animal level; assay type: in vivo, BALB/C nude mice; details: 0.2 mg/kg subcutaneous, site irradiated 10 min (700 nm target product, 640 nm reference compound, 100 mW/cm^2), then simulated natural light 10 mW/cm^2 for 1 hour
Protocol: All animal experiments in the in vivo experiments were performed in strict compliance with the Chinese regulations for animal experiments, using BALB/C nude mice, 5 weeks of age of the mouse, male, and a range of 16 g-25 g of body weight.
The mice were randomly grouped by number, and the experiment was divided into a target product group, a reference compound group, and an irradiation control group, with 3 mice in each group. Each of the mice was injected subcutaneously into an abdomen with 20 μL (0.2 mg/mL) of the target product, reference compound solution, or PBS solution, and an administered dose was 0.2 mg/kg. After the injection, a site of administration was irradiated, an irradiation condition of the target product was a 700 nm light-emitting diode lamp, and an irradiation condition of the reference compound was a 640 nm light-emitting diode lamp of 100 mW/cm^2, each of the mice was irradiated for 10 min, and no processing was performed in the irradiation control group. The state of the mouse was observed and a body temperature of the mouse was recorded with a thermal imager. Further, the three groups of mice were exposed to a simulated natural light of 10 mW/cm^2 and irradiated for 1 hour.

## C[N+](C)(C)c1c(F)c(F)c(C2=C3C(=O)OC4=[N+]3[Zn]35[n]6c2ccc6-c2c(oc6c(F)c([N+](C)(C)C)c(F)c(F)c26)[N+]3=c2oc3c(F)c([N+](C)(C)C)c(F)c(F)c3c2=c2ccc([n]25)=C4c2c(F)c(F)c([N+](C)(C)C)c(F)c2F)c(F)c1F (stereo not drawn) [target product]
[1]
  fluorescence spectrum region: in the near-infrared region
[2]
  generation of superoxide anion free radicals: ability to generate the superoxide anion free radicals under irradiation
[3]
  generation of singlet oxygen: ability to produce singlet oxygen under irradiation
[4]; 700 nm LED 2.5 mW/cm^2 for 0 min-10 min, FIG. 15
  photodegradation process monitored by HPLC: able to self-degrade and gradually be converted into the degradation product
[4]; 700 nm LED 10 mW/cm^2, FIGS. 29-30
  photodegradation in solution (absorption and emission spectra during irradiation): degraded under irradiation
[4]; 700 nm LED 10 mW/cm^2 for 2 min-4 min, FIG. 13
  degradation under irradiation (characteristic absorption at 440 nm and 710 nm): degraded under irradiation
[4]; FIG. 14
  photodegradation rate as a function of irradiation intensity: accelerated with the increase in irradiation intensity
[5]; 0 μM-4 μM, FIGS. 16-17
  cellular phototoxicity: relatively strong cellular phototoxicity under irradiation
[5]; Homo sapiens, 24 h incubation, CCK-8, read-out: half-lethal concentration IC50
  IC50: 1000 nM
[6]; 700 nm LED 100 mW/cm^2 10 min
  body weight, with irradiation: no significant weight loss
[6]; 700 nm LED 100 mW/cm^2 10 min single irradiation
  tumor growth (tumor volume), with irradiation: effectively inhibited a growth of a subcutaneous tumor
[6]; no irradiation
  body weight, dark control: no significant weight loss
  tumor growth (tumor volume), dark control: grows rapidly
[7]
  body temperature after natural light (thermal imager): no significant variation
  reactions / photosensitization side effects after natural light: did not exhibit abnormal reactions
